The text below walks through data of PMC5107896 (Scientific Reports, 2016).

For orientation: IC50 means the concentration that gives 50% inhibition. The low end stands for greater potency, the high end for weaker potency.

Common to all, as to assay type: biochemical
One assay has as its target Factor Xa (F10) (Homo sapiens, UniProt P00742). Nature of the assay: SensoLyte Rh110 Factor Xa Assay Kit (enzyme inhibition).
Assay [1] deals with T1, Monoamine oxidase A (MAOA) (Homo sapiens, UniProt P21397).
T1 sequence (P21397 1-527): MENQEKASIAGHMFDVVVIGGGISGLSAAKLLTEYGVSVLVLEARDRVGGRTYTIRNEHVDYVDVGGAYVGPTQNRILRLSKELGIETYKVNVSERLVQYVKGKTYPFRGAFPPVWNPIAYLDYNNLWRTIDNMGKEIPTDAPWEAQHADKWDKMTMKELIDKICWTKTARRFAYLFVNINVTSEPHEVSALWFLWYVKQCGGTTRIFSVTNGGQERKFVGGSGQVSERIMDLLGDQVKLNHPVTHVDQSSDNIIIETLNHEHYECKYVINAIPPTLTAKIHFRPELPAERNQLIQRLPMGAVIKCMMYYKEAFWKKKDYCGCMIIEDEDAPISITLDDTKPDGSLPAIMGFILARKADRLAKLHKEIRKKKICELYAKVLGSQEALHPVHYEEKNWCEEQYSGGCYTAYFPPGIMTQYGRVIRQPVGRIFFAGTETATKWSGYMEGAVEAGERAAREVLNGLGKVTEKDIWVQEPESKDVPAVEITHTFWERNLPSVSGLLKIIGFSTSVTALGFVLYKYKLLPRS
Nature of the assay: in vitro MAOA inhibition assay (enzyme purchased).

Assay [2] deals with T2, Prostaglandin G/H synthase 2 (PTGS2/COX2) (Ovis aries, UniProt P79208).
T2 sequence (P79208 17-603): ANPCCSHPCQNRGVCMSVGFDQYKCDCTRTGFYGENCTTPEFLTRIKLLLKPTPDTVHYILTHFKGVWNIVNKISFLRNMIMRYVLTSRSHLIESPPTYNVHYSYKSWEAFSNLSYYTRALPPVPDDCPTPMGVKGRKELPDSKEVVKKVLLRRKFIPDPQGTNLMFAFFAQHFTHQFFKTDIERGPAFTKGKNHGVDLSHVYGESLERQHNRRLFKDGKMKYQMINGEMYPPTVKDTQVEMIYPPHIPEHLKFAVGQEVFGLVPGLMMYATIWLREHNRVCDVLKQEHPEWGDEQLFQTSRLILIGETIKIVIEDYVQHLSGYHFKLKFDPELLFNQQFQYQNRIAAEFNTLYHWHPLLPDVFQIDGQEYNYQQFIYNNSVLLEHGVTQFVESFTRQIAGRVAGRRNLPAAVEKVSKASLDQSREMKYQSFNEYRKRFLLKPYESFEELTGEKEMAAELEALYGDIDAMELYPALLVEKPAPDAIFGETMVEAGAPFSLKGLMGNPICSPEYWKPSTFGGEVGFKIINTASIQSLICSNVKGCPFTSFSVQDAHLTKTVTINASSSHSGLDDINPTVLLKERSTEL
The experiment in a line: Colorimetric COX (ovine) inhibitor screening assay kit (Cayman).

Factor Xa (F10), sequence (P00742 41-179): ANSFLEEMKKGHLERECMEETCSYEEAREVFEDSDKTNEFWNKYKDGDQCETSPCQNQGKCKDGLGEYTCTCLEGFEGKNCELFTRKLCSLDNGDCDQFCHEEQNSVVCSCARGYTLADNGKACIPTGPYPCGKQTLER
Factor Xa (F10), sequence (P00742 235-488): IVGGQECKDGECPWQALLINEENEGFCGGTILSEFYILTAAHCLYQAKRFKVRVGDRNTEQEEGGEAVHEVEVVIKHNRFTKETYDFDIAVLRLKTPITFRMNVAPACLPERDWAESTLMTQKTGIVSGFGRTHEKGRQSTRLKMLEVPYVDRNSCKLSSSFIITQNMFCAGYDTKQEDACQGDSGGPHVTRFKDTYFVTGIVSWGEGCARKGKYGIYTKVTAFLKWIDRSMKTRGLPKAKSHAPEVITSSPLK

`O=C(/C=C/c1ccc(O)c(O)c1/C=C/c1ccc(O)c(O)c1)O[C@H](Cc1ccc(O)c(O)c1)C(=O)O` [salvianolic acid A] gave an IC50 on Factor Xa (F10) of 90 nM.
`O=c1cc(-c2ccc(O)c(O)c2)oc2cc(O)cc(O)c12` [luteolin] displayed an IC50 in assay [1] of 10 nM.
`O=c1c(O)c(-c2ccc(O)cc2)oc2cc(O)cc(O)c12` [kaempferol] returned an IC50 in assay [2] of 37400 nM. That is a double-digit micromolar value.
